Reference: US20020162794A1, “Anaerobic digestion” (priority 2001, published 2002)

How the values were obtained:
[1] = system: anaerobic mixed culture (domestic sewage); test: Anaerobic digestion of domestic sewage, overall effect of formate salt concentration; conditions: for effect on anaerobic digestion over the tested concentration range: 10 mg/L to 100,000 mg/L based on the organic matter available for digestion
Description: The various formate salts include, but are not limited to sodium formate (NaHCOO), potassium formate (KHCOO), ammonium formate (NH4COO), calcium formate (Ca(HCOO)2), and others either singly or in combination. These formate salts have been tested for concentrations ranging from 10 mg/L (˜10 ppm) to as high as […] (100,000 mg/L) based on the organic matter available for digestion.
Two tests were run in which sodium formate in concentrations ranging from a few parts per million (ppm) up to ten percent (10%) on a mass basis were added to samples taken from a publicly owned anaerobic digester. The samples were first cultured in laboratory sized batch reactors. The twelve batch reactors were then sampled, and studied for periods of up to fifty-five days. The process variables that were monitored included COD (Chemical Oxygen Demand), TS (Total Solids), TVS (Total Volatile Solids) and the pH of the culture. Time and the initial sodium formate concentration level were the independent variables. Finally measurements were also made of the bacterial counts at the beginning and at the end of the fifty five day period.
Municipal sludge from the city of Lubbock, Wastewater Treatment Plant was digested in 12 batch digesters. Using twelve batch reactors allowed the collection of control reactors data (i.e., no formate in the reactors) in triplicate, titration studies of increasing formate concentration, and duplicates/triplicates of varying formate concentration. Experiments were conducted in the laboratories of Texas Tech University.

[2] = system: microorganisms in domestic sewage; conditions: sodium chloride spike; cited from earlier work

SMILES | effect on anaerobic digestion over the tested concentration range [1] | concentration range of greatest effects ([1]; 10 mg/L to 100,000 mg/L tested) | toxicity of sodium levels [2]
N.O=CO [ammonium formate] | initiate the inhibition of digestion at concentrations above a few thousand mg/L | – | –
O=C[O-].[K+] [potassium formate] | beneficial at all concentration levels | greatest effects being observed over the 100 ppm to the 2,000-mg/L range | –
[Cl-].[Na+] [sodium chloride] | – | – | toxic to all microorganisms in domestic sewage at levels above three to four percent
